Test results from EPA's ToxValDB 9.5 (doi:10.2903/j.efsa.2006.87r).
Values after ≈ are worked out from the molar mass of the structure shown.

Assays:
Lepomis macrochirus = conditions: acute; duration: 96 hours; mortality
Bibionidae = conditions: chronic/long-term; duration: 28 days
Daphnia magna = conditions: chronic/long-term; duration: 21 days; reproduction
Oncorhynchus mykiss = conditions: chronic/long-term; duration: 28 days; growth
Bird = conditions: for LD50: acute, oral, unspecified, mortality
Oryctolagus sp. = conditions: reproduction developmental; mortality
Aphidius rhopalosiphi = conditions: not reported
Canidae = conditions: chronic; duration: 1 years; oral; Dog Other
Apis mellifera = conditions: acute; duration: 48 hours; oral; unspecified; mortality

SMILES	LC50 (Lepomis macrochirus)	NOEC (Bibionidae)	NOEC (Daphnia magna)	NOEC (Oncorhynchus mykiss)	LD50 (Bird)	NOAEL (Oryctolagus sp.)	LD50 (Rattus norvegicus; acute, oral, mortality)	NOAEL (Rattus norvegicus; chronic, duration: 2 years, organ weight)	NOAEL (Rattus norvegicus; reproduction developmental, body weight)	LC50 (Tagia sp.; acute, duration: 14 days, mortality)	NOEC (Tagia sp.; chronic/long-term, reproduction)	LEL (Aphidius rhopalosiphi; mortality)	LEL (Aphidius rhopalosiphi; reproduction)	NOEC (Bird; reproductive)	NOAEL (Canidae)	LD50 (Apis mellifera)	LC50 (acute, oral, diet, mortality)	NOAEL (chronic/long-term)
COC(=O)[C@@H](C)Oc1ccc(Oc2ncc(C(F)(F)F)cc2Cl)cc1 [Haloxyfop-P-methyl]	0.0884 µg/mL (≈ 0.235 µM)	2.5 mg/L	0.509 mg/L	0.0052 mg/L	1160 mg/kg-day	–	–	–	–	–	–	–	–	–	–	–	–	–
C[C@@H](Oc1ccc(Oc2ncc(C(F)(F)F)cc2Cl)cc1)C(=O)O [Haloxyfop-P]	–	–	–	–	414 mg/kg	7.5 mg/kg-day	≥ 300 mg/kg	0.065 mg/kg-day	0.065 mg/kg-day	830 mg/kg	810 g/ha	108 g/ha	5.7 g/ha	17.1 mg/kg-day	0.5 mg/kg-day	> 100 µg/piece	> 1110 mg/kg-day	1 mg/kg-day
